These results are taken from patent US6562872B1, “Emulsion of perfluoroorganic compounds for medical purposes, a process for the preparation thereof and methods for treating and preventing diseases with the use thereof” (Otkrytoe Aktsionernoe Obschestvo Naucho-Proizvodstven-Naya …, priority 2001, dated 2003).

In brackets after ≈: the same amount, converted by molar mass.

Series [1] can be described thus: Solubility of PFOCs in olive oil lipids. In kind it is physicochemical. The conditions noted are these: oil or lipid, 37° C.
Series [2] is described as follows: Solubility of PFOCs in membranes of erythrocytes. The class given is physicochemical. The conditions noted are these: 37° C.

For orientation: solubility means the concentration that dissolves in the medium under given conditions. A higher solubility goes with much dissolved substance. Compound `FC1(F)C(F)(F)C(F)(F)C2(F)C(F)(F)C(F)(F)C(F)(F)C(F)(F)C2(F)C1(F)F` (centres unmarked) [Perfluorodecalin (PFD), perfluorodecalin] showed a solubility in series [1] of 26 mM (≈ 12000 µg/mL). Also, the Solubility in membranes in series [2] is recorded as 2.0 ml per kg of dry membranes.
With `FC(F)(F)C(F)(F)C(F)(F)C(F)(F)N(C(F)(F)C(F)(F)C(F)(F)C(F)(F)F)C(F)(F)C(F)(F)C(F)(F)C(F)(F)F` [Perfluorotributylamine], the concentration in solution in series [1] (solubility) came to 1.2 mM (≈ 805 µg/mL). For the same compound, the Solubility in membranes in series [2] was 0.08 ml per kg of dry membranes.
With `FC(F)(F)C(F)(F)C(F)(F)N(C(F)(F)C(F)(F)C(F)(F)F)C(F)(F)C(F)(F)C(F)(F)F` [Perfluorotripropylamine], the concentration in solution in series [1] (solubility) came to 5.1 mM (≈ 2660 µg/mL). In series [2], the Solubility in membranes is reported as 0.3 ml per kg of dry membranes.
With `FC(F)(F)C1(F)C(F)(F)C(F)(F)C(F)(N2C(F)(F)C(F)(F)C(F)(F)C(F)(F)C2(F)F)C(F)(F)C1(F)F` (centres unmarked) [perfluoro-N-(4-methylcyclohexyl)-piperidine], the solubility in series [1] stood at 7.6 mM (≈ 4520 µg/mL). Moreover, the Solubility in membranes in series [2] was 0.5 ml per kg of dry membranes.
